{
  "source": "patent US8338565B2",
  "about": "“Macrocyclic compounds for inhibition of tumor necrosis factor alpha” (Ensemble Therapeutics Corporation, priority 2008, dated 2012)",
  "note": "Numbered stars: 1 amine (or outer) side, 2 acyl side, 3 side chain; on linkers, the order of the positions; unused ones are H or OH. Bridge positions count the residues as written; N and C are the ends. Square brackets hold non-standard residues; d marks the D form. Peptide text beside a SMILES is read from it. Bip = N[C@@H](Cc1ccc(-c2ccccc2)cc1)C(=O)O; Phe(4-NH2) = Nc1ccc(C[C@H](N)C(=O)O)cc1; Diglycolyl = O=C(COCC(=O)[*:2])[*:1]; d(hPhe) = N[C@H](CCc1ccccc1)C(=O)O; d2Thi = N[C@H](Cc1cccs1)C(=O)O; Suc = O=C(CCC(=O)[*:2])[*:1]",
  "data": [
    {"molecular_target": "T1, TNFα / TNFα receptor (TNFα R1/Fc) (Homo sapiens, UniProt P01375)", "T1 construct": "purchased R&D Systems", "T1 sequence (P01375 77-233 limits assumed, species assumed)": "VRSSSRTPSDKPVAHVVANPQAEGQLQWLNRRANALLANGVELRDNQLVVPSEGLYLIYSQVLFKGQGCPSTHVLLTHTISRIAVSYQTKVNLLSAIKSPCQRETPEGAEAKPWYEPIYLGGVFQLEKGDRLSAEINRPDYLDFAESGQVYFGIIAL", "test": "Inhibition of binding of TNFα to the TNFα receptor (plate ELISA competition)", "conditions": "Activity (IC50, inhibition of TNFα binding to TNFα R1/Fc), Table 2", "outline": "(§1)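 Plates were coated with TNFα at 15 nM. Test compound and 8.33 nM receptor-Fc (PBST, 2% DMSO) were first mixed in solution for 30 min at room temperature, then transferred to the plates for another 30 min. Competition was read by absorbance at 450 nm after HRP anti-human IgG Fc detection with TMB.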", "units": {"IC50": "µM"}, "values": [
      {"compound": "O=C1COc2ccc(cc2)C[C@@H](C(=O)N2CCC[C@@H]2C(=O)O)NC(=O)[C@@H](CCc2ccccc2)NC(=O)[C@H](Cc2ccc(-c3ccccc3)cc2)NC(=O)[C@@H](Cc2cccs2)N1", "note": "[Compound 303]", "IC50": "10 to 30"}
    ]},
    {"molecular_target": "T1, TNFα / TNFα receptor (TNFα R1/Fc)", "test": "Inhibition of binding of TNFα to the TNFα receptor (plate ELISA competition)", "conditions": "Table 2; read-out: Activity (IC50, inhibition of TNFα binding to TNFα R1/Fc)", "outline": "as §1", "units": {"IC50": "µM"}, "values": [
      {"compound": "O=C1N[C@@H](C(=O)O)Cc2ccc(cc2)NC(=O)[C@H](O)[C@@H](O)C(=O)N[C@@H](Cc2cccs2)C(=O)N[C@H](Cc2ccc(-c3ccccc3)cc2)C(=O)N[C@H]1Cc1ccccc1", "note": "[Compound 279]", "IC50": "> 100"},
      {"compound": "O=C1N[C@@H](Cc2ccccc2)C(=O)N[C@@H](C(=O)O)Cc2ccc(cc2)NC(=O)[C@H](O)[C@@H](O)C(=O)N[C@@H](Cc2cccs2)C(=O)N[C@H]1Cc1ccc(-c2ccccc2)cc1", "note": "[Compound 280]", "IC50": "> 100"},
      {"compound": "O=C1N[C@@H](C(=O)O)Cc2ccc(cc2)NC(=O)[C@H](O)[C@@H](O)C(=O)N[C@H](Cc2cccs2)C(=O)N[C@H](Cc2ccc(-c3ccccc3)cc2)C(=O)N[C@H]1Cc1ccccc1", "note": "[Compound 281]", "IC50": "> 100"},
      {"compound": "O=C(O)[C@@H]1Cc2ccc(cc2)NC(=O)[C@H](O)[C@@H](O)C(=O)N[C@H](Cc2cccs2)C(=O)N[C@@H](Cc2ccc(-c3ccccc3)cc2)C(=O)N[C@H](Cc2cccs2)C(=O)N1", "note": "[Compound 283]", "IC50": "< 10"},
      {"compound": "O=C(O)[C@@H]1Cc2ccc(cc2)NC(=O)[C@H](O)[C@@H](O)C(=O)N[C@H](Cc2cccs2)C(=O)N[C@@H](Cc2ccc(-c3ccccc3)cc2)C(=O)N[C@H](Cc2ccco2)C(=O)N1", "note": "[Compound 284]", "IC50": "10 to 30"},
      {"compound": "N#Cc1ccccc1C[C@H]1NC(=O)[C@H](Cc2ccc(-c3ccccc3)cc2)NC(=O)[C@@H](Cc2cccs2)NC(=O)[C@H](O)[C@@H](O)C(=O)Nc2ccc(cc2)C[C@@H](C(=O)O)NC1=O", "note": "[Compound 285]", "IC50": "30 to 100"},
      {"compound": "O=C(O)[C@@H]1Cc2ccc(cc2)NC(=O)[C@H](O)[C@@H](O)C(=O)N[C@H](Cc2cccs2)C(=O)N[C@@H](Cc2ccc(-c3ccccc3)cc2)C(=O)N[C@H](Cc2ccccc2Cl)C(=O)N1", "note": "[Compound 286]", "IC50": "10 to 30"},
      {"compound": "O=C(O)[C@@H]1Cc2ccc(cc2)NC(=O)[C@H](O)[C@@H](O)C(=O)N[C@H](Cc2cccs2)C(=O)N[C@@H](Cc2ccc(-c3ccccc3)cc2)C(=O)N[C@H](Cc2ccc(Cl)cc2Cl)C(=O)N1", "note": "[Compound 287]", "IC50": "10 to 30"},
      {"compound": "O=C(O)[C@@H]1Cc2ccc(cc2)NC(=O)[C@H](O)[C@@H](O)C(=O)N[C@H](Cc2cccs2)C(=O)N[C@@H](Cc2ccc(-c3ccccc3)cc2)C(=O)N[C@H](Cc2ccc(F)cc2)C(=O)N1", "note": "[Compound 288]", "IC50": "> 100"},
      {"compound": "O=C1COc2ccc(cc2)C[C@@H](C(=O)O)NC(=O)[C@H](c2ccccc2)NC(=O)[C@H](Cc2ccc(-c3ccccc3)cc2)NC(=O)[C@H](Cc2cccs2)N1", "note": "[Compound 291]", "IC50": "> 100"},
      {"compound": "O=C(O)[C@@H]1Cc2ccc(cc2)NC(=O)[C@H](O)[C@@H](O)C(=O)N[C@H](Cc2cccs2)C(=O)N[C@@H](Cc2ccc(Br)cc2)C(=O)N[C@H](Cc2ccccc2)C(=O)N1", "note": "[Compound 293]", "IC50": "> 100"},
      {"compound": "O=C1N[C@H](Cc2ccccc2)C(=O)N[C@H](C(=O)O)Cc2ccc(cc2)NC(=O)[C@H](O)[C@@H](O)C(=O)N[C@H](Cc2cccs2)C(=O)NC1c1ccc(Br)cc1", "note": "(some centres unmarked) [Compound 294]", "IC50": "30 to 100"},
      {"compound": "NCCCC[C@H](NC(=O)[C@@H]1Cc2ccc(cc2)NC(=O)CCC(=O)N[C@H](CCc2ccccc2)C(=O)N[C@@H](Cc2ccc(-c3ccccc3)cc2)C(=O)N[C@H](Cc2ccccc2)C(=O)N1)C(=O)O", "note": "[Compound 295] ([d(hPhe)][Bip][dF][Phe(4-NH2)]K-OH; linker N-4 via Suc)", "IC50": "10 to 30"},
      {"compound": "NCCCC[C@H](NC(=O)[C@@H]1Cc2ccc(cc2)NC(=O)[C@H](O)[C@@H](O)C(=O)N[C@H](Cc2cccs2)C(=O)N[C@@H](Cc2ccc(-c3ccccc3)cc2)C(=O)N[C@H](Cc2ccccc2)C(=O)N1)C(=O)O", "note": "[Compound 296]", "IC50": "30 to 100"},
      {"compound": "O=C1COc2ccc(cc2)C[C@@H](C(=O)N2CCC(C(=O)O)CC2)NC(=O)[C@@H](CCc2ccccc2)NC(=O)[C@H](Cc2ccc(-c3ccccc3)cc2)NC(=O)[C@@H](Cc2cccs2)N1", "note": "[Compound 306]", "IC50": "< 10"},
      {"compound": "O=C(O)CC[C@H](NC(=O)[C@@H]1Cc2ccc(cc2)OCC(=O)N[C@H](Cc2cccs2)C(=O)N[C@@H](Cc2ccc(-c3ccccc3)cc2)C(=O)N[C@H](CCc2ccccc2)C(=O)N1)C(=O)O", "note": "[Compound 308]", "IC50": "> 100"},
      {"compound": "O=C(O)C[C@@H]1Cc2ccc(cc2)NC(=O)[C@H](O)[C@@H](O)C(=O)N[C@H](Cc2cccs2)C(=O)N[C@@H](Cc2ccc(-c3ccccc3)cc2)C(=O)N[C@H](Cc2ccccc2)C(=O)N1", "note": "[Compound 309]", "IC50": "10 to 30"},
      {"compound": "O=C1COCC(=O)N[C@H](Cc2cccs2)C(=O)N[C@@H](Cc2ccc(-c3ccccc3)cc2)C(=O)N[C@H](Cc2ccccc2)C(=O)N[C@H](C(=O)O)Cc2ccc(cc2)N1", "note": "[Compound 310] ([d2Thi][Bip][dF][Phe(4-NH2)]-OH; linker N-4 via Diglycolyl)", "IC50": "> 100"},
      {"compound": "O=C(O)[C@@H]1Cc2ccc(cc2)NC(=O)[C@H](O)[C@@H](O)C(=O)N[C@H](Cc2cccnc2)C(=O)N[C@@H](Cc2ccc(-c3ccccc3)cc2)C(=O)N[C@H](Cc2ccccc2)C(=O)N1", "note": "[Compound 311]", "IC50": "30 to 100"},
      {"compound": "O=C(O)[C@@H]1Cc2ccc(cc2)NC(=O)[C@H](O)[C@@H](O)C(=O)N[C@H](c2ccccc2)C(=O)N[C@@H](Cc2ccc(-c3ccccc3)cc2)C(=O)N[C@H](Cc2ccccc2)C(=O)N1", "note": "[Compound 312]", "IC50": "> 100"},
      {"compound": "N#Cc1ccccc1C[C@H]1NC(=O)[C@H](O)[C@@H](O)C(=O)Nc2ccc(cc2)C[C@@H](C(=O)O)NC(=O)[C@@H](Cc2ccccc2)NC(=O)[C@H](Cc2ccc(-c3ccccc3)cc2)NC1=O", "note": "[Compound 314]", "IC50": "10 to 30"},
      {"compound": "O=C(O)[C@@H]1Cc2ccc(cc2)NC(=O)[C@H](O)[C@@H](O)C(=O)N[C@H](Cc2ccccc2Cl)C(=O)N[C@@H](Cc2ccc(-c3ccccc3)cc2)C(=O)N[C@H](Cc2ccccc2)C(=O)N1", "note": "[Compound 315]", "IC50": "10 to 30"},
      {"compound": "N#Cc1cccc(C[C@H]2NC(=O)[C@H](O)[C@@H](O)C(=O)Nc3ccc(cc3)C[C@@H](C(=O)O)NC(=O)[C@@H](Cc3ccccc3)NC(=O)[C@H](Cc3ccc(-c4ccccc4)cc3)NC2=O)c1", "note": "[Compound 316]", "IC50": "10 to 30"},
      {"compound": "COc1cccc(C[C@H]2NC(=O)[C@H](O)[C@@H](O)C(=O)Nc3ccc(cc3)C[C@@H](C(=O)O)NC(=O)[C@@H](Cc3ccccc3)NC(=O)[C@H](Cc3ccc(-c4ccccc4)cc3)NC2=O)c1", "note": "[Compound 317]", "IC50": "10 to 30"},
      {"compound": "O=C1COc2ccc(cc2)C[C@@H](C(=O)NCCO)NC(=O)[C@@H](CCc2ccccc2)NC(=O)[C@H](Cc2ccc(-c3ccccc3)cc2)NC(=O)[C@@H](Cc2cccs2)N1", "note": "[Compound 322]", "IC50": "10 to 30"},
      {"compound": "O=C(O)CNC(=O)[C@@H]1Cc2ccc(cc2)OCC(=O)N[C@@H](Cc2cccs2)C(=O)N[C@@H](Cc2ccc(-c3ccccc3)cc2)C(=O)N[C@@H](Cc2ccccc2)C(=O)N1", "note": "[Compound 329]", "IC50": "< 10"},
      {"compound": "COc1ccc(-c2ccc(C[C@@H]3NC(=O)[C@@H](Cc4cccs4)NC(=O)[C@H](O)[C@@H](O)C(=O)Nc4ccc(cc4)C[C@@H](C(=O)O)NC(=O)[C@@H](Cc4ccccc4)NC3=O)cc2)cc1", "note": "[Compound 333]", "IC50": "30 to 100"},
      {"compound": "O=C(O)[C@@H]1Cc2ccc(cc2)NC(=O)[C@H](O)[C@@H](O)C(=O)N[C@H](Cc2cccs2)C(=O)N[C@@H](Cc2ccc(-c3ccc(F)cc3)cc2)C(=O)N[C@H](Cc2ccccc2)C(=O)N1", "note": "[Compound 334]", "IC50": "30 to 100"}
    ]}
  ]
}
